Reference: patent publication US20250171437A1 (Agios Pharmaceuticals,Inc., priority 2022, published 2025)

Target: T1, human PAH with the R408W mutation (A375 R408W cells) (Homo sapiens, UniProt P00439, R408W)
T1 construct: expressed in transfected cells
T1 sequence (P00439 1-452 R408W): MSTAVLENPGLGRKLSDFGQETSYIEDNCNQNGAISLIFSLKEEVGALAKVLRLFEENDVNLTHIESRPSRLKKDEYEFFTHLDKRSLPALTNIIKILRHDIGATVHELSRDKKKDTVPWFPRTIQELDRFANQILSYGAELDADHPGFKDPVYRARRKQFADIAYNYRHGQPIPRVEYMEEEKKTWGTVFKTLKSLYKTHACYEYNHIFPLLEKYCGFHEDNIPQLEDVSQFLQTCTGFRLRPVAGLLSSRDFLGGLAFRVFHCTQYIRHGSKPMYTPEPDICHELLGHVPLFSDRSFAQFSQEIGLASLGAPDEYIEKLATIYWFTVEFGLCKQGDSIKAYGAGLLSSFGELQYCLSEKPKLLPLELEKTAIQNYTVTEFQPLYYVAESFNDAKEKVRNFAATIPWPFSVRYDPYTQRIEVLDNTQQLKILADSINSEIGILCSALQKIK
Assay: Cell Based Phenylalanine Flux Assay
Details: A375 R408W cells; 24 hrs with compound, then 20 μM sepiapterin and 800 μM 13C9,15N-Phenylalanine for 4 hours; 13C-Tyrosine by LC-MS; average where tested multiple times
In short: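 LC-MS quantitation of 13C-tyrosine in media gave AC50 values. Stable A375 R408W PAH cells were preincubated 24 h with compound, then fed 800 μM labelled Phe plus 20 μM sepiapterin for 4 h. Dose curves were 10-point, tested in duplicate, averaged over repeat runs.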

Compound	AC50
Cn1nc(C(F)F)nc1C(=O)N1CCc2[nH]cnc2[C@H]1c1nc2c(F)ccc(F)c2o1 [Example 486, (S)-(4-(4,7-difluorobenzo[d]oxazol-2-yl)-6,7-dihydro-1H-imidazo[4,5-c]pyridin-5(4H)-yl)(3-(difluoromethyl)-1-methyl-1H-1,2,4-triazol-5-yl)methanone]	0.5 to 1 µM
O=C(c1ccnn1C(F)F)N1CCc2[nH]cnc2[C@H]1c1nc2c(F)ccc(F)c2o1 [Example 487, (S)-(4-(4,7-difluorobenzo[d]oxazol-2-yl)-6,7-dihydro-1H-imidazo[4,5-c]pyridin-5(4H)-yl)(1-(difluoromethyl)-1H-pyrazol-5-yl)methanone]	≤ 0.5 µM
O=C(c1ccnn1C(F)F)N1CCc2[nH]cnc2[C@@H]1c1nc2c(F)ccc(F)c2o1 [Example 488, (R)-(4-(4,7-difluorobenzo[d]oxazol-2-yl)-6,7-dihydro-1H-imidazo[4,5-c]pyridin-5(4H)-yl)(1-(difluoromethyl)-1H-pyrazol-5-yl)methanone]	1 to 5 µM
O=C(c1ccnn1C(F)F)N1CCc2[nH]cnc2[C@H]1c1nc2c(F)cc(F)cc2o1 [Example 489, (S)-(4-(4,6-difluorobenzo[d]oxazol-2-yl)-6,7-dihydro-1H-imidazo[4,5-c]pyridin-5(4H)-yl)(1-(difluoromethyl)-1H-pyrazol-5-yl)methanone]	0.5 to 1 µM
O=C(c1ccnn1C(F)F)N1CCc2[nH]cnc2[C@@H]1c1nc2c(F)cc(F)cc2o1 [Example 490, (R)-(4-(4,6-difluorobenzo[d]oxazol-2-yl)-6,7-dihydro-1H-imidazo[4,5-c]pyridin-5(4H)-yl)(1-(difluoromethyl)-1H-pyrazol-5-yl)methanone]	1 to 5 µM
Cc1ccc2oc([C@@H]3c4nc[nH]c4CCN3C(=O)c3nnc(-c4cn[nH]c4)o3)nc2c1 [Example 491, (S)-(5-(1H-pyrazol-4-yl)-1,3,4-oxadiazol-2-yl)(4-(5-methylbenzo[d]oxazol-2-yl)-6,7-dihydro-1H-imidazo[4,5-c]pyridin-5(4H)-yl)methanone]	0.5 to 1 µM
Cc1ccc2oc([C@H]3c4nc[nH]c4CCN3C(=O)c3nnc(-c4cn[nH]c4)o3)nc2c1 [Example 492, (R)-(5-(1H-pyrazol-4-yl)-1,3,4-oxadiazol-2-yl)(4-(5-methylbenzo[d]oxazol-2-yl)-6,7-dihydro-1H-imidazo[4,5-c]pyridin-5(4H)-yl)methanone]	1 to 5 µM
O=C(c1ocnc1C(F)F)N1CCc2[nH]cnc2[C@H]1c1nc2cccc(C(F)(F)F)c2o1 [Example 493, (S)-(4-(difluoromethyl)oxazol-5-yl)(4-(7-(trifluoromethyl)benzo[d]oxazol-2-yl)-6,7-dihydro-1H-imidazo[4,5-c]pyridin-5(4H)-yl)methanone]	≤ 0.5 µM
O=C(c1ocnc1C(F)F)N1CCc2[nH]cnc2[C@@H]1c1nc2cccc(C(F)(F)F)c2o1 [Example 494, (R)-(4-(difluoromethyl)oxazol-5-yl)(4-(7-(trifluoromethyl)benzo[d]oxazol-2-yl)-6,7-dihydro-1H-imidazo[4,5-c]pyridin-5(4H)-yl)methanone]	≤ 0.5 µM
Cc1nc(C(=O)N2CCc3[nH]cnc3[C@H]2c2nc3cccc(F)c3o2)n(C)n1 [Example 495, (S)-(1,3-dimethyl-1H-1,2,4-triazol-5-yl)(4-(7-fluorobenzo[d]oxazol-2-yl)-6,7-dihydro-1H-imidazo[4,5-c]pyridin-5(4H)-yl)methanone]	1 to 5 µM
Cc1nc(C(=O)N2CCc3[nH]cnc3[C@@H]2c2nc3cccc(F)c3o2)n(C)n1 [Example 496, (R)-(1,3-dimethyl-1H-1,2,4-triazol-5-yl)(4-(7-fluorobenzo[d]oxazol-2-yl)-6,7-dihydro-1H-imidazo[4,5-c]pyridin-5(4H)-yl)methanone]	1 to 5 µM
Cn1nc(C2CC2)nc1C(=O)N1CCc2[nH]cnc2[C@H]1c1nc2cccc(F)c2o1 [Example 497, (S)-(3-cyclopropyl-1-methyl-1H-1,2,4-triazol-5-yl)(4-(7-fluorobenzo[d]oxazol-2-yl)-6,7-dihydro-1H-imidazo[4,5-c]pyridin-5(4H)-yl)methanone]	1 to 5 µM

The next lines start with the values.

AC50	Compound
1 to 5 µM	Cn1nc(C2CC2)nc1C(=O)N1CCc2[nH]cnc2[C@@H]1c1nc2cccc(F)c2o1 [Example 498, (R)-(3-cyclopropyl-1-methyl-1H-1,2,4-triazol-5-yl)(4-(7-fluorobenzo[d]oxazol-2-yl)-6,7-dihydro-1H-imidazo[4,5-c]pyridin-5(4H)-yl)methanone]
≤ 0.5 µM	Cc1cc(F)c2oc([C@@H]3c4nc[nH]c4CCN3C(=O)c3oc(C(C)(C)O)nc3C(F)F)nc2c1 [Example 499, (S)-(4-(difluoromethyl)-2-(2-hydroxypropan-2-yl)oxazol-5-yl)(4-(7-fluoro-5-methylbenzo[d]oxazol-2-yl)-6,7-dihydro-1H-imidazo[4,5-c]pyridin-5(4H)-yl)methanone]
≤ 0.5 µM	Cc1cc(F)c2oc([C@H]3c4nc[nH]c4CCN3C(=O)c3oc(C(C)(C)O)nc3C(F)F)nc2c1 [Example 500, (R)-(4-(difluoromethyl)-2-(2-hydroxypropan-2-yl)oxazol-5-yl)(4-(7-fluoro-5-methylbenzo[d]oxazol-2-yl)-6,7-dihydro-1H-imidazo[4,5-c]pyridin-5(4H)-yl)methanone]
≤ 0.5 µM	Cc1cc(F)c2oc([C@@H]3c4nc[nH]c4CCN3C(=O)c3ocnc3C(F)F)nc2c1 [Example 501, (S)-(4-(difluoromethyl)oxazol-5-yl)(4-(7-fluoro-5-methylbenzo[d]oxazol-2-yl)-6,7-dihydro-1H-imidazo[4,5-c]pyridin-5(4H)-yl)methanone]
≤ 0.5 µM	Cc1cc(F)c2oc([C@H]3c4nc[nH]c4CCN3C(=O)c3ocnc3C(F)F)nc2c1 [Example 502, (R)-(4-(difluoromethyl)oxazol-5-yl)(4-(7-fluoro-5-methylbenzo[d]oxazol-2-yl)-6,7-dihydro-1H-imidazo[4,5-c]pyridin-5(4H)-yl)methanone]
≥ 5 µM	O=C(c1cnn2cc(N3CCOCC3)ccc12)N1CCc2[nH]cnc2[C@@H]1c1nc2c(F)cccc2o1 [Example 503, (R)-(4-(4-fluorobenzo[d]oxazol-2-yl)-6,7-dihydro-1H-imidazo[4,5-c]pyridin-5(4H)-yl)(6-morpholinopyrazolo[1,5-a]pyridin-3-yl)methanone]
0.5 to 1 µM	O=C(c1cnn2cc(N3CCOCC3)ccc12)N1CCc2[nH]cnc2[C@H]1c1nc2c(F)cccc2o1 [Example 504, (S)-(4-(4-fluorobenzo[d]oxazol-2-yl)-6,7-dihydro-1H-imidazo[4,5-c]pyridin-5(4H)-yl)(6-morpholinopyrazolo[1,5-a]pyridin-3-yl)methanone]
0.5 to 1 µM	O=C(c1cnn2cc(N3CCC4(CC3)CC4)ccc12)N1CCc2[nH]cnc2[C@H]1c1nc2c(F)cccc2o1 [Example 505, (S)-(6-(6-azaspiro[2.5]octan-6-yl)pyrazolo[1,5-a]pyridin-3-yl)(4-(4-fluorobenzo[d]oxazol-2-yl)-6,7-dihydro-1H-imidazo[4,5-c]pyridin-5(4H)-yl)methanone]
1 to 5 µM	O=C(c1cnn2cc(N3CCC4(CC3)CC4)ccc12)N1CCc2[nH]cnc2[C@@H]1c1nc2c(F)cccc2o1 [Example 506, (R)-(6-(6-azaspiro[2.5]octan-6-yl)pyrazolo[1,5-a]pyridin-3-yl)(4-(4-fluorobenzo[d]oxazol-2-yl)-6,7-dihydro-1H-imidazo[4,5-c]pyridin-5(4H)-yl)methanone]
0.5 to 1 µM	CC(C)(O)C1CCN(c2ccc3c(C(=O)N4CCc5[nH]cnc5[C@H]4c4nc5c(F)cccc5o4)cnn3c2)CC1 [Example 507, (S)-(4-(4-fluorobenzo[d]oxazol-2-yl)-6,7-dihydro-1H-imidazo[4,5-c]pyridin-5(4H)-yl)(6-(4-(2-hydroxypropan-2-yl)piperidin-1-yl)pyrazolo[1,5-a]pyridin-3-yl)methanone]
≥ 5 µM	CC(C)(O)C1CCN(c2ccc3c(C(=O)N4CCc5[nH]cnc5[C@@H]4c4nc5c(F)cccc5o4)cnn3c2)CC1 [Example 508, (R)-(4-(4-fluorobenzo[d]oxazol-2-yl)-6,7-dihydro-1H-imidazo[4,5-c]pyridin-5(4H)-yl)(6-(4-(2-hydroxypropan-2-yl)piperidin-1-yl)pyrazolo[1,5-a]pyridin-3-yl)methanone]
≤ 0.5 µM	Cc1cccc2oc([C@@H]3c4nc[nH]c4CCN3C(=O)c3cnco3)nc12 [Example 509, (S)-(4-(4-methylbenzo[d]oxazol-2-yl)-6,7-dihydro-1H-imidazo[4,5-c]pyridin-5(4H)-yl)(oxazol-5-yl)methanone]
1 to 5 µM	Cc1cccc2oc([C@H]3c4nc[nH]c4CCN3C(=O)c3cnco3)nc12 [Example 510, (R)-(4-(4-methylbenzo[d]oxazol-2-yl)-6,7-dihydro-1H-imidazo[4,5-c]pyridin-5(4H)-yl)(oxazol-5-yl)methanone]
0.5 to 1 µM	Cc1cccc2oc([C@@H]3c4nc[nH]c4CCN3C(=O)c3cnc(C(C)(C)O)o3)nc12 [Example 511, (S)-(2-(2-hydroxypropan-2-yl)oxazol-5-yl)(4-(4-methylbenzo[d]oxazol-2-yl)-6,7-dihydro-1H-imidazo[4,5-c]pyridin-5(4H)-yl)methanone]
